# Laboratory results from ChEMBL document CHEMBL5154747, “Discovery of new carbonic anhydrase IX inhibitors as anticancer agents by toning the hydrophobic and hydrophilic rims of the active site to encounter the dual-tail approach” (Eur J Med Chem, 2022).
# Columns and labels:
# Format in all cases: functional
# [1] = system: A549; test: Anticancer activity against human A549 cells assessed as cell growth inhibition incubated for 48 hrs by SRB assay
# [2] = system: SK-MEL-2; test: Anticancer activity against human SK-MEL-2 cells assessed as cell growth inhibition incubated for 48 hrs by SRB assay
# [3] = system: DU-145; test: Anticancer activity against human DU-145 cells assessed as cell growth inhibition at 10 uM incubated for 48 hrs by SRB assay relative to control; settings: read-out: GI
# [4] = system: 786-0; test: Anticancer activity against human 786-0 cells assessed as cell growth inhibition at 10 uM incubated for 48 hrs by SRB assay relative to control; settings: read-out: GI
# [5] = system: SW-620; test: Anticancer activity against human SW-620 cells assessed as cell growth inhibition at 10 uM incubated for 48 hrs by SRB assay relative to control; settings: read-out: GI
# [6] = system: HCT-15; test: Anticancer activity against human HCT-15 cells assessed as cell growth inhibition at 10 uM incubated for 48 hrs by SRB assay relative to control; settings: read-out: GI
# [7] = system: SK-MEL-28; test: Anticancer activity against human SK-MEL-28 cells assessed as cell growth inhibition incubated for 48 hrs by SRB assay
# [8] = system: IGROV-1; test: Anticancer activity against human IGROV-1 cells assessed as cell growth inhibition incubated for 48 hrs by SRB assay
# [9] = system: PC-3; test: Anticancer activity against human PC-3 cells assessed as cell growth inhibition at 10 uM incubated for 48 hrs by SRB assay relative to control; settings: read-out: GI
# [10] = system: NCI/ADR-RES; test: Anticancer activity against human NCI/ADR-RES cells assessed as cell growth inhibition at 10 uM incubated for 48 hrs by SRB assay relative to control; settings: read-out: GI
# [11] = system: CCRF-CEM; test: Anticancer activity against human CCRF-CEM cells assessed as cell growth inhibition at 10 uM incubated for 48 hrs by SRB assay relative to control; settings: read-out: GI
# [12] = system: NCI-H226; test: Anticancer activity against human NCI-H226 cells assessed as cell growth inhibition at 10 uM incubated for 48 hrs by SRB assay relative to control; settings: read-out: GI
# [13] = system: UACC-62; test: Anticancer activity against human UACC-62 cells assessed as cell growth inhibition at 10 uM incubated for 48 hrs by SRB assay relative to control; settings: read-out: GI
# [14] = system: NCI-H460; test: Anticancer activity against human NCI-H460 cells assessed as cell growth inhibition incubated for 48 hrs by SRB assay
# [15] = system: EKVX; test: Anticancer activity against human EKVX cells assessed as cell growth inhibition at 10 uM incubated for 48 hrs by SRB assay relative to control; settings: read-out: GI
# [16] = system: A498; test: Anticancer activity against human A498 cells assessed as cell growth inhibition incubated for 48 hrs by SRB assay
# [17] = system: NCI-H322M; test: Anticancer activity against human NCI-H322M cells assessed as cell growth inhibition at 10 uM incubated for 48 hrs by SRB assay relative to control; settings: read-out: GI
# [18] = system: EKVX; test: Anticancer activity against human EKVX cells assessed as cell growth inhibition incubated for 48 hrs by SRB assay
# [19] = system: LOX IMVI; test: Anticancer activity against human LOX IMVI cells assessed as cell growth inhibition at 10 uM incubated for 48 hrs by SRB assay relative to control; settings: read-out: GI
# [20] = system: OVCAR-8; test: Anticancer activity against human OVCAR-8 cells assessed as cell growth inhibition at 10 uM incubated for 48 hrs by SRB assay relative to control; settings: read-out: GI
# [21] = system: COLO 205; test: Anticancer activity against human COLO 205 cells assessed as cell growth inhibition at 10 uM incubated for 48 hrs by SRB assay relative to control; settings: read-out: GI
# [22] = system: MOLT-4; test: Anticancer activity against human MOLT-4 cells assessed as cell growth inhibition incubated for 48 hrs by SRB assay
# [23] = system: K562; test: Anticancer activity against human K562 cells assessed as cell growth inhibition incubated for 48 hrs by SRB assay
# [24] = system: Malme-3M; test: Anticancer activity against human Malme-3M cells assessed as cell growth inhibition incubated for 48 hrs by SRB assay
# [25] = system: MCF7; test: Anticancer activity against human MCF7 cells assessed as cell growth inhibition at 10 uM incubated for 48 hrs by SRB assay relative to control; settings: read-out: GI
# [26] = system: SW-620; test: Anticancer activity against human SW-620 cells assessed as cell growth inhibition incubated for 48 hrs by SRB assay
# [27] = system: MDA-MB-231; test: Anticancer activity against human MDA-MB-231 cells assessed as cell growth inhibition incubated for 48 hrs by SRB assay
# [28] = system: UACC-257; test: Anticancer activity against human UACC-257 cells assessed as cell growth inhibition incubated for 48 hrs by SRB assay
# [29] = system: DU-145; test: Anticancer activity against human DU-145 cells assessed as cell growth inhibition incubated for 48 hrs by SRB assay
# [30] = system: A498; test: Anticancer activity against human A498 cells assessed as cell growth inhibition at 10 uM incubated for 48 hrs by SRB assay relative to control; settings: read-out: GI
# [31] = system: OVCAR-3; test: Anticancer activity against human OVCAR-3 cells assessed as cell growth inhibition incubated for 48 hrs by SRB assay
# [32] = system: NCI/ADR-RES; test: Anticancer activity against human NCI/ADR-RES cells assessed as cell growth inhibition incubated for 48 hrs by SRB assay
# [33] = system: RPMI-8226; test: Anticancer activity against human RPMI-8226 cells assessed as cell growth inhibition at 10 uM incubated for 48 hrs by SRB assay relative to control; settings: read-out: GI
# [34] = system: SF-268; test: Anticancer activity against human SF-268 cells assessed as cell growth inhibition at 10 uM incubated for 48 hrs by SRB assay relative to control; settings: read-out: GI
# [35] = system: UO-31; test: Anticancer activity against human UO-31 cells assessed as cell growth inhibition at 10 uM incubated for 48 hrs by SRB assay relative to control; settings: read-out: GI
# [36] = system: HOP-62; test: Anticancer activity against human HOP-62 cells assessed as cell growth inhibition incubated for 48 hrs by SRB assay
# [37] = system: RXF 393; test: Anticancer activity against human RXF 393 cells assessed as cell growth inhibition incubated for 48 hrs by SRB assay
# [38] = system: MDA-MB-435; test: Anticancer activity against human MDA-MB-435 cells assessed as cell growth inhibition incubated for 48 hrs by SRB assay
# [39] = system: U-251; test: Anticancer activity against human U-251 cells assessed as cell growth inhibition at 10 uM incubated for 48 hrs by SRB assay relative to control; settings: read-out: GI
# [40] = system: A549; test: Anticancer activity against human A549 cells assessed as cell growth inhibition at 10 uM incubated for 48 hrs by SRB assay relative to control; settings: read-out: GI
# [41] = read-out: LC50 (the source's name)
smiles,measurement,setting,value
NS(=O)(=O)c1ccc(Nc2nc(N/N=C/c3ccccn3)nc(Nc3ccccc3)n2)cc1,GI50,[1],2.29 µM
same,LC50,[1],> 100 µM
same,GI50,[2],1.5 µM
same,inhibition of growth at 10 µM,[3],95%
same,inhibition of growth at 10 µM,[4],91%
same,inhibition of growth at 10 µM,[5],117%
same,inhibition of growth at 10 µM,[6],82%
same,GI50,[7],0.75 µM
same,CC50,[7]; [41],6.19 µM
same,GI50,[8],0.79 µM
same,CC50,[8]; [41],> 100 µM
same,inhibition of growth at 10 µM,[9],107%
same,inhibition of growth at 10 µM,[10],51%
same,inhibition of growth at 10 µM,[11],94%
same,inhibition of growth at 10 µM,[12],149%
same,inhibition of growth at 10 µM,[13],149%
same,GI50,[14],2.41 µM
same,CC50,[14]; [41],> 100 µM
same,inhibition of growth at 10 µM,[15],86%
same,GI50,[16],1.61 µM
same,CC50,[16]; [41],6.89 µM
same,inhibition of growth at 10 µM,[17],109%
same,GI50,[18],0.71 µM
same,CC50,[18]; [41],> 100 µM
same,inhibition of growth at 10 µM,[19],143%
same,inhibition of growth at 10 µM,[20],96%
same,inhibition of growth at 10 µM,[21],142%
same,GI50,[22],0.43 µM
same,CC50,[22]; [41],> 100 µM
same,GI50,[23],0.4 µM
same,CC50,[23]; [41],> 100 µM
same,GI50,[24],1 µM
same,CC50,[24]; [41],6.28 µM
same,inhibition of growth at 10 µM,[25],98%
same,GI50,[26],0.71 µM
same,CC50,[26]; [41],> 100 µM
same,GI50,[27],0.5 µM
same,LC50 (concentration killing 50% of cells),[27],> 100 µM
same,GI50,[28],2.14 µM
same,LC50,[28],> 100 µM
same,GI50,[29],0.85 µM
same,LC50 (50% lethal concentration),[29],> 100 µM
same,inhibition of growth at 10 µM,[30],167%
same,GI50,[31],0.46 µM
same,LC50 (concentration killing 50% of cells),[31],> 100 µM
same,GI50,[32],2.75 µM
same,CC50,[32]; [41],> 100 µM
same,inhibition of growth at 10 µM,[33],63%
same,inhibition of growth at 10 µM,[34],122%
same,inhibition of growth at 10 µM,[35],82%
same,GI50,[36],0.55 µM
same,CC50,[36]; [41],> 100 µM
same,GI50,[37],1.07 µM
same,CC50,[37]; [41],6.51 µM
same,GI50,[38],0.91 µM
same,LC50,[38],5.93 µM
same,inhibition of growth at 10 µM,[39],155%
same,inhibition of growth at 10 µM,[40],64%
COc1ccc(/C=N/Nc2nc(Nc3ccccc3)nc(Nc3ccc(S(N)(=O)=O)cc3)n2)cc1,inhibition of growth at 10 µM,[3],34%
same,inhibition of growth at 10 µM,[4],26%
same,inhibition of growth at 10 µM,[5],27%
same,inhibition of growth at 10 µM,[6],31%
same,inhibition of growth at 10 µM,[9],24%
same,inhibition of growth at 10 µM,[10],< 10%
same,inhibition of growth at 10 µM,[11],54%
same,inhibition of growth at 10 µM,[12],26%
same,inhibition of growth at 10 µM,[13],12%
same,inhibition of growth at 10 µM,[15],11%
same,inhibition of growth at 10 µM,[17],15%
same,inhibition of growth at 10 µM,[19],47%
same,inhibition of growth at 10 µM,[20],32%
same,inhibition of growth at 10 µM,[21],23%
same,inhibition of growth at 10 µM,[25],59%
same,inhibition of growth at 10 µM,[30],38%
same,inhibition of growth at 10 µM,[33],52%
same,inhibition of growth at 10 µM,[34],< 10%
same,inhibition of growth at 10 µM,[35],22%
same,inhibition of growth at 10 µM,[39],33%
same,inhibition of growth at 10 µM,[40],12%
CCCCc1nc(/C=N/Nc2nc(Nc3ccccc3)nc(Nc3ccc(S(N)(=O)=O)cc3)n2)c(Cl)[nH]1,inhibition of growth at 10 µM,[3],15%
same,inhibition of growth at 10 µM,[4],< 10%
same,inhibition of growth at 10 µM,[5],24%
same,inhibition of growth at 10 µM,[6],< 10%
same,inhibition of growth at 10 µM,[9],17%
same,inhibition of growth at 10 µM,[10],< 10%
same,inhibition of growth at 10 µM,[11],87%
same,inhibition of growth at 10 µM,[12],< 10%
same,inhibition of growth at 10 µM,[13],27%
same,inhibition of growth at 10 µM,[15],< 10%
same,inhibition of growth at 10 µM,[17],< 10%
same,inhibition of growth at 10 µM,[19],58%
same,inhibition of growth at 10 µM,[20],< 10%
same,inhibition of growth at 10 µM,[21],27%
same,inhibition of growth at 10 µM,[25],53%
same,inhibition of growth at 10 µM,[30],10%
same,inhibition of growth at 10 µM,[33],< 10%
same,inhibition of growth at 10 µM,[34],34%
same,inhibition of growth at 10 µM,[35],14%
same,inhibition of growth at 10 µM,[39],101%
same,inhibition of growth at 10 µM,[40],< 10%
